These results are taken from US20250235543A1, “MODIFIED PROTEINS AND PROTEIN DEGRADERS” (Cullgen (Shanghai), Inc., priority 2021, published 2025).

Bounds are passed on as bounds.

What all share (format): cell-based
For test [1], the system named is Rb phosphorylation, cleaved caspase-3. Description: Immunoblotting of downstream Rb phosphorylation and cleaved caspase-3 in Calu-1 or BT-549 cells. As to conditions: 16 hours. As to the method:
(§1) Calu-1 (FIG. 2A) or BT-549 (FIG. 2B) cells were treated with CPD-002, CPD-004, or palbociclib at indicated concentrations for 16 hours.
(§2) Cultured cells were washed with cold PBS once and lysed in cold RIPA buffer supplemented with protease inhibitors and phosphatase inhibitors (Beyotime Biotechnology). The solutions were then incubated at 4° C. for 30 min with gentle agitation to fully lysed cells. Cell lysates were centrifuged at 13,000 rpm for 10 min at 4° C. and pellets were discarded. Total protein concentrations in the lysates were determined following BCA assays (Beyotime Biotechnology). Cell lysates were mixed with Laemmli loading buffer and heated at 99° C. for 5 min. Proteins were resolved on SDS-PAGE and visualized using Western ECL Substrate kits on a ChemiDoc MP Imaging system (Bio-Rad). Protein bands were quantitated using the Image Lab software provided by Bio-Rad.
Background: A western blot detects proteins with antibodies after separation by electrophoresis.

Test [2] relates to MDA-MB-468. The experiment in a line: Cell viability assay, MDA-MB-468. As to conditions: Homo sapiens, 72 h; MDA-MB-468, TNBC, 3 days; read-out: Cellular Anti-proliferation activity (IC50). As to the method:
(§3) Cells were treated with CDK4/6 inhibitors palbociclib, ribociclib, or abemaciclib, or heterobifunctional compounds CPD-002 or CPD-031 following a 9-point serial dilution for 3 days.
(§4) Cells were seeded at a density of 2,000-5,000 cells per well in 96-well assay plates and treated with test compounds following a 10-point serial dilution for 3-6 days. Cell viability was determined using the CellTiter-Lumi assay kit according to the manufacturer's instructions. The dose-response curves were determined and IC50 values were calculated using the GraphPad Prism software following a nonlinear regression (least squares fit) method. Data presented was mean±standard deviation (SD) unless otherwise indicated.

Test [3] has as its system MIA PaCa-2. The experiment in a line: Cell viability assay, MIA PaCa-2. Particulars: Homo sapiens, 72 h; MIA PaCa-2, PC, 3 days; read-out: Cellular Anti-proliferation activity (IC50). How it is done: as §3, §4
Test [4] concerns KURAMOCHI
The experiment in a line: Cell viability assay, KURAMOCHI
As to conditions: 72 h, OC, 3 days, read-out: Cellular Anti-proliferation activity (IC50). As to the method:
as §3, §4

The test system of test [5] is cyclin D1, cyclin D2, cyclin D3, CDK4 and CDK6. The experiment in a line: Immunoblotting of cyclin D and CDK4/6 protein levels in BT-549 cells. As to conditions: indicated concentrations, 16 hours. How it is done: as §1, §2
The test system is the same in test [6]. Description: Immunoblotting of cyclin D and CDK4/6 protein levels in Calu-1 cells. As to conditions: for cyclin D degradation after pretreatment with MG-132, MLN4924 or TAK-243: 2 hours pre-treatment, then 500 nM CPD-002, 500 nM CPD-004 or 100 nM CPD-031 for 4 h or 2 h; for time course of cyclin D1, cyclin D2 and cyclin D3 protein level reduction: CPD-002 at 500 nM, CPD-031 at 100 nM; for cyclin D1, cyclin D2, cyclin D3, CDK4 and CDK6 protein levels: indicated concentrations, 16 hours.

Test [7] has as its system Calu-1, NCI-H522, BT-549, Hs578T, MIA PaCa-2 or other cells. Description: Inhibition of cancer cell growth, 9-point serial dilution in 96-well plates. Particulars: 3 d treatment.
Test [8] relates to cyclin D1, cyclin D2, cyclin D3. Description: Immunoblot of cyclin D protein levels in Calu-1 (and BT-549) cells. As to conditions: for cyclin D downregulation effect after pre-treatment with MG-132, MLN4924 or TAK-243: proteasome, cullin E3 ligase or UAE inhibitor pre-treatment; for DC50 / reduction of cyclin D1, cyclin D2, and cyclin D3 protein levels: immunoblot, dose range; for DC50: 16 hours treatment; for reduction of cyclin D1, cyclin D2, and cyclin D3 protein levels: Calu-1 / BT-549 cells, 16 hours. How it is done: Specific exemplary heterobifunctional compounds were characterized in Calu-1, BT-549 and other cells. Cells that express cyclin D1-3 and CDK4/6 proteins were treated with heterobifunctional compounds disclosed herein at indicated concentrations for 16 hours. Cells were collected, lysed and subject to immunoblotting using an antibody specific to cyclin D1, cyclin D2, cyclin D3, CDK4, CDK6 or phosphorylated R^b proteins. Tubulin or GAPDH was used as the loading control. DMSO treatment was used as the negative control.
In a time-course study, Calu-1 cells were treated with 500 nM CPD-002, or 100 nM CPD-031 for indicated period of time prior to immunoblotting (FIG. 4A-4B).
The heterobifunctional compound-mediated degradation was dependent on the ubiquitin-proteasome system and cullin E3 ligase. […] In addition, DDB1 E3 ligase was critical for the degrader-induced cyclin D downregulation. Depletion of DDB1 using CRISPR-Cas9 technology attenuated the cyclin D degradation induced by CPD-031 (FIG. 5C).
To verify that heterobifunctional compound-mediated degradation is dependent on the binding to CDK4-cyclin D complex, we designed three negative control compounds, CPD-042, CPD-049 and CPD-380, which are derived from CPD-002 CPD-031 and CPD-343, respectively. These three control compounds bear the same DDB1 ligand and linker as their corresponding active heterobifunctional compounds but with modified warheads to impair the binding of the control compounds to CDK4. […] However, the binding to CDK4 is not sufficient for cyclin D degradation. Two cereblon (CRBN)-recruiting reference heterobifunctional compounds, CP-10 (Su, J Med Chem, 2019; CAS No.: 2366268-80-4) and BSJ-03-123 (Brand, Cell Chem Biol, 2019; CAS No.: 2361493-16-3) were analyzed in Calu-1 cells.

Test [9] relates to cyclin D1. The experiment in a line: Cyclin D1 degradation in parental and DDB1 knockout Hs578T cells. Particulars: dose range, 4 hours. As to the method: Parental and DDB1 knockout Hs578T cells were treated with a dose range of CPD-031 for 4 hours (FIG. 5C).
The procedures for CRISPR-Cas9 mediated knock-out followed the previously published protocols (Ran et al., 2013). The sgRNA targeting human DDB1 (sgRNA sequence: […]) (SEQ ID NO: 1) was designed using the online CRISPR Design Tool (chopchop.cbu.uib.no/), and constructed into CRISPR-Cas9 vector, pLentiCRISPR V2 (Addgene #52961). Lentivirus was produced in HEK293T cells by co-transfecting pLentiCRISPR construct with packing vectors. Hs578T cells stably expressing Cas9 enzyme and sgRNA were established by lentivirus transduction, selected, and maintained in medium containing […] puromycin.
as §2, with “Proteins were resolved on SDS-PAGE and visualized using Western ECL Substrate kits on a ChemiDoc MP Imaging system (Bio-Rad).” left out

[10] abbreviates: time-course, Calu-1 cells, 500 nM CPD-002.

As to `CC(=O)c1c(C)c2cnc(Nc3ccc(N4CCN(CC(=O)NCCOCCOCCOCCOCCOCCNc5ccc(C(=O)Nc6ncc(C)s6)c(C)c5)CC4)cn3)nc2n(C2CCCC2)c1=O` [CPD-002, 4-((1-(4-(6-((6-Acetyl-8-cyclopentyl-5-methyl-7-oxo-7,8-dihydropyrido[2,3-d]pyrimidin-2-yl)amino)pyridin-3-yl)piperazin-1-yl)-2-oxo-6,9,12,15,18-pentaoxa-3-azaicosan-20-yl)amino)-2-methyl-N-(5-methylthiazol-2-yl)benzamide], the “downstream Rb phosphorylation and cleaved caspase-3” value in test [1] was “inhibited downstream Rb phosphorylation and induced cleaved caspase-3 in a concentration-dependent manner”. Further, the IC50 in test [2] was found to be 1480 nM. Also, the IC50 in test [3] is 175 nM. Besides, in test [4], the IC50 is 920 nM. Besides, the “cyclin D1, cyclin D2, cyclin D3, CDK4 and CDK6 protein levels” value (“cyclin D1, cyclin D2, cyclin D3” for short) in test [5] was “reduced cyclin D1, cyclin D2, cyclin D3, CDK4 and CDK6 protein levels in a concentration-dependent manner”. For the same compound, in [6], the “cyclin D degradation after pretreatment with MG-132, MLN4924 or TAK-243” value is “diminished the cyclin D degradation effect”; the “time course of cyclin D1, cyclin D2 and cyclin D3 protein level reduction” value is “significantly reduced as early as one hour following treatment”; the “cyclin D1, cyclin D2, cyclin D3” value was “reduced cyclin D1, cyclin D2, cyclin D3, CDK4 and CDK6 protein levels in a concentration-dependent manner”. For the same compound, the “potency at inhibition of multiple cancer cell lines versus CDK4/6 inhibitors” value in test [7] is “significantly more potent than palbociclib, ribociclib, and abemaciclib”. Moreover, the “cyclin D downregulation effect after pre-treatment with MG-132, MLN4924 or TAK-243” value in test [8] (Calu-1 cells) is on record as “totally diminished”. For the same compound, in test [8], the DC50 is under 50 nM; the “reduction of cyclin D1, cyclin D2, and cyclin D3 protein levels” value is “particularly effective”. For the same compound, in test [8] (setting [10]), the “time to complete degradation of cyclin D proteins” value was at most 2 h and the “time to significant degradation of cyclin D proteins” value was at most 0.5 h.

Consider `CC(=O)c1c(C)c2cnc(Nc3ccc(N4CCN(CC(=O)NCCOCCOCCOCCOCCOCCNc5ccc(C(=O)Nc6nc(C)c(C)s6)c(C)c5)CC4)cn3)nc2n(C2CCCC2)c1=O` [CPD-031, 4-((1-(4-(6-((6-Acetyl-8-cyclopentyl-5-methyl-7-oxo-7,8-dihydropyrido[2,3-d]pyrimidin-2-yl)amino)pyridin-3-yl)piperazin-1-yl)-2-oxo-6,9,12,15,18-pentaoxa-3-azaicosan-20-yl)amino)-N-(4,5-dimethylthiazol-2-yl)-2-methylbenzamide], for which the IC50 in [3] came to 57 nM. In addition, the “cyclin D1 degradation in DDB1 knockout versus parental cells” value in test [9] is “partially compromised by depletion of DDB1 E3 ligase”. Also, the IC50 in [4] was 190 nM. For the same compound, in test [6], the “cyclin D degradation after pretreatment with MG-132, MLN4924 or TAK-243” value is “diminished the cyclin D degradation effect”; the “time course of cyclin D1, cyclin D2 and cyclin D3 protein level reduction” value is reported as “significantly reduced as early as one hour following treatment”; the “cyclin D1, cyclin D2, cyclin D3” value is “downregulated the protein levels of cyclin D1, cyclin D2, cyclin D3, CDK4, CDK6, and downstream phosphorylated Rb in a concentration-dependent manner”. The “potency at inhibition of multiple cancer cell lines versus CDK4/6 inhibitors” value in [7] was “significantly more potent than palbociclib, ribociclib, and abemaciclib”. For the same compound, in test [8] (Calu-1 cells, 100 nM CPD-031), the “cyclin D3 versus cyclin D1 and D2 degradation, time-course” value was “slower cyclin D3 degradation compared to cyclin D1 and D2 degradation”. For the same compound, the “cyclin D downregulation effect after pre-treatment with MG-132, MLN4924 or TAK-243” value in [8] (Calu-1 cells) is reported as “totally diminished”. Also, in test [8], the DC50 was under 20 nM; the “reduction of cyclin D1, cyclin D2, and cyclin D3 protein levels” value was “particularly effective”.
